Assay results: patent US20130184320A1, “Imine Compounds” (BASF SE, priority 2010, published 2013)

Assays:
Format in all cases: in vivo
Aphis craccivora = experiment: B.2 Cowpea aphid spray test on potted cowpea plants; conditions: sprayed plants, assessed after 24, 72 and 120 hours, read-out: mortality in comparison with untreated controls
Procedure: B.2 Cowpea Aphid (Aphis craccivora)
Potted cowpea plants colonized with approximately 100-150 aphids of various stages were sprayed after the pest population had been recorded. Population reduction was assessed after 24, 72, and 120 hours.

Myzus persicae = experiment: B.4 Green peach aphid systemic test, artificial diet in 96-well plates; conditions: 72 h, 3 days, read-out: mortality in comparison with untreated controls
Excerpt: B.4 Green Peach Aphid (Myzus persicae)
For evaluating control of green peach aphid (Myzus persicae) through systemic means the test unit consisted of 96-well-microtiter plates containing liquid artificial diet under an artificial membrane.
The compounds were formulated using a solution containing 75% v/v water and 25% v/v DMSO. Different concentrations of formulated compounds were pipetted into the aphid diet, using a custom built pipetter, at two replications.
After application, 5-8 adult aphids were placed on the artificial membrane inside the microtiter plate wells. The aphids were then allowed to suck on the treated aphid diet and incubated at about 23±1° C. and about 50±5% relative humidity for 3 days. Aphid mortality and fecundity was then visually assessed.

Heliothis virescens = experiment: B.11 Tobacco budworm I microtiter plate diet test; conditions: 120 h, tobacco budworm eggs and larvae on diet, 5 days, read-out: mortality in comparison with untreated controls
Procedure: B.11 Tobacco Budworm (Heliothis virescens) I
For evaluating control of tobacco budworm (Heliothis virescens) the test unit consisted of 96-well-microtiter plates containing an insect diet and 15-25 H. virescens eggs.
The compounds were formulated using a solution containing 75% v/v water and 25% v/v DMSO. Different concentrations of formulated compounds were sprayed onto the insect diet at 10 μl, using a custom built micro atomizer, at two replications.
(§1) After application, microtiter plates were incubated at about 28±1° C. and about 80±5% relative humidity for 5 days. Egg and larval mortality was then visually assessed.

Plutella xylostella = experiment: B.3 Diamond back moth leaf dip test on Chinese cabbage; conditions: foliar, recorded 24, 72 and 120 hours after treatment, read-out: mortality in comparison with untreated controls
Procedure: B.3 Diamond Back Moth (Plutella xylostella)
Leaves of Chinese cabbage were dipped in test solution and air-dried. Treated leaves were placed in petri dished lined with moist filter paper. Mortality was recorded 24, 72, and 120 hours after treatment.

Anthonomus grandis = experiment: B.12 Boll weevil microtiter plate diet test; conditions: 120 h, boll weevil eggs and larvae on diet, 5 days, read-out: mortality in comparison with untreated controls
Procedure: B.12 Boll Weevil (Anthonomus grandis)
For evaluating control of boll weevil (Anthonomus grandis) the test unit consisted of 24-well-microtiter plates containing an insect diet and 20-30 A. grandis eggs.
The compounds were formulated using a solution containing 75% v/v water and 25% v/v DMSO. Different concentrations of formulated compounds were sprayed onto the insect diet at 20 μl, using a custom built micro atomizer, at two replications.
After application, microtiter plates were incubated at about 23±1° C. and about 50±5% relative humidity for 5 days. Egg and larval mortality was then visually assessed.

Ceratitis capitata = experiment: B.5 Mediterranean fruitfly microtiter plate diet test; conditions: 120 h, Mediterranean fruitfly eggs and larvae on diet, 5 days, read-out: mortality in comparison with untreated controls
Procedure: B.5 Mediterranean Fruitfly (Ceratitis capitata)
For evaluating control of Mediterranean fruitfly (Ceratitis capitata) the test unit consisted of microtiter plates containing an insect diet and 50-80 C. capitata eggs.
The compounds were formulated using a solution containing 75% v/v water and 25% v/v DMSO. Different concentrations of formulated compounds were sprayed onto the insect diet at 5 μl, using a custom built micro atomizer, at two replications.
as §1

Dichromothrips corbetti = experiment: B.6 Orchid thrips floral-immersion test; conditions: 96 h, orchid thrips adults, 4 days, read-out: mortality in comparison with untreated controls
Procedure: B.6 Orchid Thrips (dichromothrips corbetti)
Dichromothrips corbetti adults used for bioassay were obtained from a colony maintained continuously under laboratory conditions. For testing purposes, the test compound was diluted to a concentration of 500 ppm (wt compound: vol diluent) in a 1:1 mixture of acetone:water (vol:vol), plus 0.01% vol/vol Kinetic® surfactant.
Thrips potency of each compound was evaluated by using a floral-immersion technique. Plastic petri dishes were used as test arenas. All petals of individual, intact orchid flowers were dipped into treatment solution and allowed to dry. Treated flowers were placed into individual petri dishes along with 10-15 adult thrips. The petri dishes were then covered with lids. All test arenas were held under continuous light and a temperature of about 28° C. for duration of the assay. After 4 days, the numbers of live thrips were counted on each flower, and along inner walls of each petri dish. The level of thrips mortality was extrapolated from pre-treatment thrips numbers.

bemisia argentifolii = experiment: B.8 Silverleaf whitefly spray test on cotton plants; conditions: 300 ppm; silverleaf whitefly adults on sprayed cotton; 3 days
Excerpt: B.8 Silverleaf Whitefly (bemisia argentifolii)
The active compounds were formulated in cyclohexanone as a 10,000 ppm solution supplied in tubes. The tubes were inserted into an automated electrostatic sprayer equipped with an atomizing nozzle and they served as stock solutions for which lower dilutions were made in 50% acetone:50% water (v/v). A nonionic surfactant (Kinetic®) was included in the solution at a volume of 0.01% (v/v).
Cotton plants at the cotyledon stage (one plant per pot) were sprayed by an automated electrostatic plant sprayer equipped with an atomizing spray nozzle. The plants were dried in the sprayer fume hood and then removed from the sprayer. Each pot was placed into a plastic cup and about 10 to 12 whitefly adults (approximately 3-5 days old) were introduced. The insects were collected using an aspirator and a nontoxic Tygon® tubing connected to a barrier pipette tip. The tip, containing the collected insects, was then gently inserted into the soil containing the treated plant, allowing insects to crawl out of the tip to reach the foliage for feeding. Cups were covered with a reusable screened lid. […] Mortality was assessed 3 days after treatment, compared to untreated control plants.

O=C(NCC(F)(F)F)N/N=C/c1ccc(N2CC(c3cc(Cl)cc(Cl)c3)(C(F)(F)F)OC2=O)cc1Cl (centres unmarked) [Compound 3-1, 1-[(E)-[2-chloro-4-[5-(3,5-dichlorophenyl)-2-oxo-5-(trifluoromethyl)oxazolidin-3-yl]phenyl]methyleneamino]-3-(2,2,2-trifluoroethyl)urea]
mortality at 500 ppm (Aphis craccivora): ≥ 75% | mortality at 2500 ppm (Myzus persicae): ≥ 75% | mortality at 2500 ppm (Heliothis virescens): ≥ 75% | mortality at 500 ppm (Plutella xylostella): ≥ 75% | mortality at 2500 ppm (Anthonomus grandis): ≥ 75% | mortality at 2500 ppm (Ceratitis capitata): ≥ 75% | mortality at 500 ppm (Dichromothrips corbetti): ≥ 75%

CNC(=O)NN=Cc1ccc(N2CCC(c3cc(Cl)cc(Cl)c3)(C(F)(F)F)C2)cc1Cl (centres unmarked) [Compound 2-4]
mortality in comparison with untreated controls (bemisia argentifolii): at least 75%
